In a melting point compilation (Tetko et al.; mined from patent text by program, amines drawn as free bases though some values may be those of a salt):

SMILES | melting point [°C]
CC(C)c1nn(-c2ncccn2)c(-c2ccc(F)cc2)c1Br | 130 to 133
CCOc1nn(-c2ccc(C(F)(F)F)cn2)cc1CCOc1ccc(CC(=O)O)cc1 | 142 to 143
COC(=O)Nc1nccc(Oc2ccc3c(C(=O)Nc4ccc(F)c(C(F)(F)F)c4)cccc3c2)n1 | 204 to 205
O=C(N1CCCCC1)N1CC(Oc2cccc(C(F)(F)F)c2)C1 | 50 to 52
CC1(C)CC(=O)C2=C(C1)NC1=C(C(=O)CC(C)(C)C1)C2c1ccc2c(c1)OCCO2 | > 300
CCCCC(Cc1cccnc1)(C(=O)NO)S(=O)(=O)c1ccc(OC)cc1 (stereo not drawn) | 65
Cn1ccnc1C1Cn2cc(C(=O)NCc3ccc(Cl)cc3)c(=O)c3cc(CN4CCOCC4)cc(c32)O1 (stereo not drawn) | > 260
Fc1ccc(-c2n[nH]cc2-c2ccnc(NCc3ccccc3)n2)cc1 | 216 to 217
Cc1noc(CCNC(c2ccccc2)(c2ccccc2)c2ccccc2)n1 | 100 to 101
O=C(NC1CC2C=CC1C2)n1cc(F)c(=O)[nH]c1=O (stereo not drawn) | 180
Cc1nc2cc(C(F)(F)F)ccc2n1N | 190 to 192
O=C1NC(=O)C(=Cc2ccc(N3CCC4(CC3)OCCO4)c(F)c2)S1 | 159 to 160
CCOC(=O)CC1c2cc(OC)ccc2N(c2nc(Cl)nc3ccccc23)C1C (stereo not drawn) | 111 to 112
COc1ccc(/C=C/S(=O)(=O)Nc2ccc(F)cc2)cc1 | 115 to 117
O=C1OCCC12Sc1ccc(Cl)cc1C2=O (stereo not drawn) | 143 to 144
COc1cc2c(cc1C)CCN(C)C2C1(C2C=CCCC2)CCC1 (stereo not drawn) | 124 to 125
Cc1nc(-c2ccc3c(c2)CCCC3)c(CO)o1 | 132 to 133
COc1ccc(S(=O)(=O)NCc2ccc(O)cc2)cc1 | 161 to 162
CN(C)c1nc(N(C)C)c2ccccc2n1 | 74 to 76
CC1(O)C=CC2C3CCC4=CC(=O)CCC4C3C(c3ccc(-c4ccc(C#N)cc4)cc3)CC21C (stereo not drawn) | 206
COCc1cnc2c(NC(=O)c3c(Cl)cccc3Cl)cccc2c1CCl | 164
COc1cc(OC)cc(N2CCN(C(=O)Nc3cc4ccccc4nc3OC)CC2)c1 | 200 to 201
O=c1[nH]c2sccc2c(=O)n1CCN1CCN(c2ccccc2)CC1 | 228 to 230

SMILES | melting point [°C]
O=C1c2ccccc2-n2cnc(-c3cccc(Cl)c3)c2[C@@H]2CCCN12 | 242 to 243
COC(=O)NCc1ccc(Br)cc1F | 66 to 67.5
O=C(Nc1n[nH]c(=S)s1)NC(Cc1ccccc1)C(=O)NCc1ccc(C(F)(F)F)cc1 (stereo not drawn) | 217 to 218
c1ccc(-c2ncc(-c3ccc4cc(OCc5nnn[nH]5)ccc4c3)o2)cc1 | 239 to 241
CN1Cc2c(C(=O)NN)ncn2-c2ccsc2C1=O | > 260
NC(C(=O)O)c1ccc(C(=O)O)cc1N1CCCC1 (stereo not drawn) | 187 to 190
CC(C)c1cc(C=CC(=O)Nc2ccc(C(=O)O)cc2)oc1C(C)C | 131 to 133
CCOC(=O)c1[nH]cc2c1NC1=C(C(=O)CCC1)C2c1ccc(Sc2nc3ccc(F)c(F)c3[nH]2)o1 (stereo not drawn) | 144 to 148
O=C(O)c1cccc(-c2ccc3c(c2)C(Oc2ccc(Cl)cc2Cl)CCC3)c1 (stereo not drawn) | 176 to 181
COC(=O)Cc1ccc2oc(=S)[nH]c2c1 | 120 to 122
CCOC(=O)c1cccc2nc(OCC)n(Cc3ccc(-c4ccccc4C#N)cc3)c12 | 131 to 132
N#Cc1ccc(N2C(=O)N(CCCO)C3(CCOCC3)C2=O)cc1C(F)(F)F | 155 to 156
Cn1ncc(C(=O)N2CCC2)c1C(=O)Nc1ccn2nc(N3CCOCC3)nc2c1 | 232 to 234
CN(C)C(=O)Cc1c[nH]c2ccc(I)cc12 | 195 to 200
CCCCCCCCCCCCSCCC(=O)OC(CSCCCCCCCCCCCC)CSCCCCCCCCCCCC | 31 to 32
Oc1ccccc1CNNCc1ccccc1O | 315 to 316
Cc1nc(NC(=O)c2cnn3c(C(F)(F)F)cc(-c4ccc(C(F)(F)F)cc4)nc23)sc1S(=O)(=O)N1CCN(C)CC1 | 273
Cc1oc(-c2ccc(C(F)(F)F)cc2)cc1C(=O)Nc1cccc(C=O)c1 | 183 to 184
CCCN(Cc1ccc(-c2ccccc2C(=N)NO)cc1)c1nc2ccccc2cc1C(=O)OCC | 61 to 67
CCOC(=O)c1cnn(-c2cc(C)cc(C)c2)c1C#N | 83.5 to 84.5
CCOC(=O)c1c(O)c(Br)c(Br)n1Cc1ccccc1 | 107 to 108
CCc1ccc2c(c1)C(=O)c1ccc(C(=O)O)cc1S2(=O)=O | 300 to 303
Cc1cc(C(N)=O)ncc1C(c1c(F)ccc(F)c1F)S(=O)(=O)CCC(C)(F)F (stereo not drawn) | 165 to 166

SMILES | melting point [°C]
NCc1ccc(-c2nc(-c3ccc(F)cc3)c(-c3ccncc3)[nH]2)cc1 | 214 to 215
COC(=O)C1=C(C)NC2=C(C(=O)OC2)C1c1cccc2nc(-c3ccccc3)sc12 (stereo not drawn) | 275
N#Cc1ccc(NC(=O)N[C@@H]2C[C@@H]2c2c(F)cccc2Cl)nc1 (relative stereo) | 189
CCCCN(CCCC)CCCOc1ccc(S(=O)(=O)c2c(-c3ccccc3)noc2C(C)C)cc1 | 53.5
CN(C)c1ccc(CN(C(=O)C2CCCc3c(O)cccc32)c2ccccc2)cc1 (stereo not drawn) | 138 to 143
CCCCn1c(SC(CC)C(N)=O)nc2c1c(=O)[nH]c(=O)n2C (stereo not drawn) | 253
Nc1ccc(Nc2ccc([N+](=O)[O-])cc2S(=O)(=O)CCO)cc1 | 147 to 149
CCCCCCCCOC(=O)CCP(=O)(CCC(N)=O)Cc1cc(C(C)(C)C)c(O)c(C(C)(C)C)c1 (stereo not drawn) | 154 to 157
Cc1c(C(=O)c2cccc(O)c2)sc(N)c1C(=O)OC(C)(C)C | 169 to 172
CC(C)(CO)NS(=O)(=O)c1cc(NC(=O)c2cnn3c(C(F)F)cc(-c4ccc(C(F)(F)F)cc4)nc23)c(Cl)s1 | 233
O=C(O)c1cnc2n1CCc1ccccc1C2=C1CCN(CCc2ccc(OCc3ccc4ccccc4n3)cc2)CC1 | 174
CCOC(=O)c1cnc2cc(OC)c(OC)cc2c1Cl | 147 to 150
COCCN1C(=O)C(C)(C)C(=O)Nc2cc(CN(CCn3cc(C)c4occc4c3=O)Cc3cccnc3C)ccc21 | 205 to 206
C#CCCN1CC=C(c2ccccc2)CC1 | 36.5 to 37.5
N#Cc1cnc2cc3ccccc3cc2c1Nc1ccc(F)c(Cl)c1 | 257 to 259
CC(C)(C)c1nn(-c2c(Cl)cc(C(F)(F)F)cc2Cl)c(N)c1Br | 228 to 231
CCOC(=O)C1CCc2[nH]c3ccc(F)cc3c2C1 (stereo not drawn) | 115 to 117
CCOC(=O)C1=C(COCC#CC(O)c2ccccc2)NC(C)=C(C(=O)OC)C1c1cccc(Cl)c1Cl (stereo not drawn) | 160 to 164
N#Cc1sc(Cl)c(Cl)c1Cl | 63 to 64
CCCCCCCCNc1c(Nc2ccc(CC(C)NC[C@H](O)COc3ccc(O)cc3)cc2)c(=O)c1=O (stereo partly drawn) | 122 to 127
N#Cc1ccc(N(Cc2ccccc2)n2cnnc2)cc1-c1ccc(OS(N)(=O)=O)cc1 | 157 to 160
CN(C)CCCCCCCCCCC(=N)NC(=S)Nc1ccc(Cl)cc1 | 130 to 132
